{"source": "patent US6953855B2", "about": "(priority 1998, dated 2005)", "biological_target": "T1, muscle-type receptors (α1β1γδ subtype in human TE671/RD clonal cells) (Homo sapiens, UniProt P02708+P07510+Q07001)", "T1 construct": "endogenous in cells; host or cells: human TE671/RD rhabdomyosarcoma cells", "T1 sequence (P02708 21-457)": "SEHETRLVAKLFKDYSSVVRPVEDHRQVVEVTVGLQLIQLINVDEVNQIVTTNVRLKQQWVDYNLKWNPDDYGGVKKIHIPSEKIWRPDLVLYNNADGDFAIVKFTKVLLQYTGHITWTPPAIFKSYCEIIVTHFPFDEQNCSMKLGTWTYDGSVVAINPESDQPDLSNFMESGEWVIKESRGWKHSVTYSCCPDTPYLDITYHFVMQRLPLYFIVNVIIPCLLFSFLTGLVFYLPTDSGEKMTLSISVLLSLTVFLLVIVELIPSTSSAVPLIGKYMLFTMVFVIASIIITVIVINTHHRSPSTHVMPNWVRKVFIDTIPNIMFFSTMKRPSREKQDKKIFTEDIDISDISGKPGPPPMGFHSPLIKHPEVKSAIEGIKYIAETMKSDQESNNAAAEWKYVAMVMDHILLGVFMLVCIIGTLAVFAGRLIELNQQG", "T1 sequence (P11230 24-501 partner)": "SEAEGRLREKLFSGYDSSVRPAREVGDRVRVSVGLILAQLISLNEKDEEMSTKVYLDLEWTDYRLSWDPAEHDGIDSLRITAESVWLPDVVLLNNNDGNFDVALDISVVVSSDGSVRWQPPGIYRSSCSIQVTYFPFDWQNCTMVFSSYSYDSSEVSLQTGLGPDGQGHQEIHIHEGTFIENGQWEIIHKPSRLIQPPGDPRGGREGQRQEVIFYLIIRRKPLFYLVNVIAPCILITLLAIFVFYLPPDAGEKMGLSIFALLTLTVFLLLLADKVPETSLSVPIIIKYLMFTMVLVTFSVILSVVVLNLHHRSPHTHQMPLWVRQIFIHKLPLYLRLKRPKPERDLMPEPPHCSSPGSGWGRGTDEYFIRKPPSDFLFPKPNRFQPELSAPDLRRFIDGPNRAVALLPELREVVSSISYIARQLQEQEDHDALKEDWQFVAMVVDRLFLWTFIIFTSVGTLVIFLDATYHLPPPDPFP", "T1 sequence (P07510 23-517)": "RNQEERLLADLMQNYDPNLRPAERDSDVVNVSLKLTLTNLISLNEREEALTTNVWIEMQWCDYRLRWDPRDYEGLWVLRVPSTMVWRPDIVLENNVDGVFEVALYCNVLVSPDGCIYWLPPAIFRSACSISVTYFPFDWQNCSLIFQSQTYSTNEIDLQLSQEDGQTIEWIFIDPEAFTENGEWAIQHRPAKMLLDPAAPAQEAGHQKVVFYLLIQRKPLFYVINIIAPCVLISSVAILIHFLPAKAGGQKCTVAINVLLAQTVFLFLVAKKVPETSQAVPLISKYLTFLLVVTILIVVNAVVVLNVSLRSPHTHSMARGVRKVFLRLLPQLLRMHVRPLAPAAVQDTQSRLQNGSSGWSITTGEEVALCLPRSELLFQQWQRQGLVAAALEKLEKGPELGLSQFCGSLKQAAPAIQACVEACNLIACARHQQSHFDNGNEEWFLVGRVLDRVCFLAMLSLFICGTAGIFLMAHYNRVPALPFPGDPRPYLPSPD", "T1 sequence (Q07001 22-517)": "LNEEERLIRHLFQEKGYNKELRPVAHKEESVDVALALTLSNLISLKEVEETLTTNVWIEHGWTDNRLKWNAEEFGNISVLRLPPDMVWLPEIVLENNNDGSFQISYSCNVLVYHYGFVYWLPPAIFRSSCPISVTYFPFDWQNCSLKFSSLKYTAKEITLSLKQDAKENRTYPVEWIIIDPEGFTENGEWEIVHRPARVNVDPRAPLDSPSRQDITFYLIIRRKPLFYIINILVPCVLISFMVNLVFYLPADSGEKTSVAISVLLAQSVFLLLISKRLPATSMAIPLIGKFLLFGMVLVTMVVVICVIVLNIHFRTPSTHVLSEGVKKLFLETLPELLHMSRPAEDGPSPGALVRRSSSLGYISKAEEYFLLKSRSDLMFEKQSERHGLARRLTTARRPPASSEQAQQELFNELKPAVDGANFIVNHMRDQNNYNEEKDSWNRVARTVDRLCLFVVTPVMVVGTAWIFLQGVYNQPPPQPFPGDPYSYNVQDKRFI", "assay": "cell-based", "details": "read-out: agonist activity, % of nicotine's response (human muscle)", "data": [{"compound": "O=C(Nc1ccc(Br)cc1)OC1C2CCN(CC2)C1Cc1cccnc1", "note": "(centres unmarked) [Compound 1, 2-((3-pyridinyl)methyl)-1-azabicyclo[2.2.2]oct-3-yl N-(4-bromophenyl)carbamate]", "values": [{"measurement": "activation at 100 µM", "result": "1 to 12", "unit": "%"}]}, {"compound": "O=C(Nc1ccc(F)cc1)OC1C2CCN(CC2)C1Cc1cccnc1", "note": "(centres unmarked) [Compound 3, 2-((3-pyridinyl)methyl)-1-azabicyclo[2.2.2]oct-3-yl N-(4-fluorophenyl)carbamate]", "values": [{"measurement": "activation at 100 µM", "result": "1 to 12", "unit": "%"}]}, {"compound": "COc1ccc(NC(=O)OC2C3CCN(CC3)C2Cc2cccnc2)cc1", "note": "(centres unmarked) [Compound 4, 2-((3-pyridinyl)methyl)-1-azabicyclo[2.2.2]oct-3-yl N-(4-methoxyphenyl)carbamate]", "values": [{"measurement": "activation at 100 µM", "result": "1 to 12", "unit": "%"}]}, {"compound": "CSc1ccc(NC(=O)OC2C3CCN(CC3)C2Cc2cccnc2)cc1", "note": "(centres unmarked) [Compound 5, 2-((3-pyridinyl)methyl)-1-azabicyclo[2.2.2]oct-3-yl N-(4-methylthiophenyl)carbamate]", "values": [{"measurement": "activation at 100 µM", "result": "1 to 12", "unit": "%"}]}, {"compound": "O=C(NC1C2CCN(CC2)C1Cc1cccnc1)c1ccc(F)cc1", "note": "(centres unmarked) [Compound 8, N-(2-((3-pyridinyl)methyl)-1-azabicyclo[2.2.2]oct-3-yl)-4-fluorobenzamide]", "values": [{"measurement": "activation at 100 µM", "result": "1 to 12", "unit": "%"}]}, {"compound": "O=C(NC1C2CCN(CC2)C1Cc1cccnc1)c1cc2ccccc2o1", "note": "(centres unmarked) [Compound 9, N-(2-((3-pyridinyl)methyl)-1-azabicyclo[2.2.2]oct-3-yl)benzofuran-2-carboxamide]", "values": [{"measurement": "activation at 100 µM", "result": "1 to 12", "unit": "%"}]}, {"compound": "O=C(NC1C2CCN(CC2)C1Cc1cccnc1)c1ccc(Br)cc1", "note": "(centres unmarked) [Compound 10, N-(2-((3-pyridinyl)methyl)-1-azabicyclo[2.2.2]oct-3-yl)-4-bromobenzamide]", "values": [{"measurement": "activation at 100 µM", "result": "1 to 12", "unit": "%"}]}, {"compound": "O=C(NC1C2CCN(CC2)C1Cc1cccnc1)c1ccccc1", "note": "(centres unmarked) [Compound 13, N-(2-((3-pyridinyl)methyl)-1-azabicyclo[2.2.2]oct-3-yl)benzamide]", "values": [{"measurement": "activation at 100 µM", "result": "1 to 12", "unit": "%"}]}, {"compound": "COc1cccc(C(=O)NC2C3CCN(CC3)C2Cc2cccnc2)c1", "note": "(centres unmarked) [Compound 14, N-(2-((3-pyridinyl)methyl)-1-azabicyclo[2.2.2]oct-3-yl)-3-methoxybenzamide]", "values": [{"measurement": "activation at 100 µM", "result": "1 to 12", "unit": "%"}]}, {"compound": "O=C(NC1C2CCN(CC2)C1Cc1cccnc1)c1cccc(Br)c1", "note": "(centres unmarked) [Compound 15, N-(2-((3-pyridinyl)methyl)-1-azabicyclo[2.2.2]oct-3-yl)-3-bromobenzamide]", "values": [{"measurement": "activation at 100 µM", "result": "1 to 12", "unit": "%"}]}, {"compound": "O=C(Nc1ccccc1)NC1C2CCN(CC2)C1Cc1cccnc1", "note": "(centres unmarked) [Compound 16, N-phenyl-N′-(2-((3-pyridinyl)methyl)-1-azabicyclo[2.2.2]oct-3-yl)urea]", "values": [{"measurement": "activation at 100 µM", "result": "1 to 12", "unit": "%"}]}, {"compound": "O=C(Nc1ccc(Oc2ccccc2)cc1)NC1C2CCN(CC2)C1Cc1cccnc1", "note": "(centres unmarked) [Compound 17, N-(4-phenoxyphenyl)-N′-(2-((3-pyridinyl)methyl)-1-azabicyclo[2.2.2]oct-3-yl)urea]", "values": [{"measurement": "activation at 100 µM", "result": "1 to 12", "unit": "%"}]}, {"compound": "CSc1ccc(NC(=O)NC2C3CCN(CC3)C2Cc2cccnc2)cc1", "note": "(centres unmarked) [Compound 18, N-(4-methylthiophenyl)-N′-(2-((3-pyridinyl)methyl)-1-azabicyclo[2.2.2]oct-3-yl)urea]", "values": [{"measurement": "activation at 100 µM", "result": "1 to 12", "unit": "%"}]}, {"compound": "O=C(Nc1cccc(F)c1)NC1C2CCN(CC2)C1Cc1cccnc1", "note": "(centres unmarked) [Compound 19, N-(3-fluorophenyl)-N′-(2-((3-pyridinyl)methyl)-1-azabicyclo[2.2.2]oct-3-yl)urea]", "values": [{"measurement": "activation at 100 µM", "result": "1 to 12", "unit": "%"}]}, {"compound": "O=C(Nc1ccc(Br)cc1)NC1C2CCN(CC2)C1Cc1cccnc1", "note": "(centres unmarked) [Compound 20, N-(4-bromophenyl)-N′-(2-((3-pyridinyl)methyl)-1-azabicyclo[2.2.2]oct-3-yl)urea]", "values": [{"measurement": "activation at 100 µM", "result": "1 to 12", "unit": "%"}]}, {"compound": "COc1ccccc1NC(=O)NC1C2CCN(CC2)C1Cc1cccnc1", "note": "(centres unmarked) [Compound 21, N-(2-methoxyphenyl)-N′-(2-((3-pyridinyl)methyl)-1-azabicyclo[2.2.2]oct-3-yl)urea]", "values": [{"measurement": "activation at 100 µM", "result": "1 to 12", "unit": "%"}]}, {"compound": "COc1ccc(NC(=O)NC2C3CCN(CC3)C2Cc2cccnc2)c(OC)c1", "note": "(centres unmarked) [Compound 22, N-(2,4-dimethoxyphenyl)-N′-(2-((3-pyridinyl)methyl)-1-azabicyclo[2.2.2]oct-3-yl)urea]", "values": [{"measurement": "activation at 100 µM", "result": "1 to 12", "unit": "%"}]}, {"compound": "O=C(Nc1ccc(Cl)c(Cl)c1)NC1C2CCN(CC2)C1Cc1cccnc1", "note": "(centres unmarked) [Compound 23, N-(3,4-dichlorophenyl)-N′-(2-((3-pyridinyl)methyl)-1-azabicyclo[2.2.2]oct-3-yl)urea]", "values": [{"measurement": "activation at 100 µM", "result": "1 to 12", "unit": "%"}]}, {"compound": "COc1ccc(NC(=O)NC2C3CCN(CC3)C2Cc2cccnc2)cc1", "note": "(centres unmarked) [Compound 24, N-(4-methoxyphenyl)-N′-(2-((3-pyridinyl)methyl)-1-azabicyclo[2.2.2]oct-3-yl)urea]", "values": [{"measurement": "activation at 100 µM", "result": "1 to 12", "unit": "%"}]}, {"compound": "CN(C)c1ccc(NC(=O)NC2C3CCN(CC3)C2Cc2cccnc2)cc1", "note": "(centres unmarked) [Compound 25, N-(4-dimethylaminophenyl)-N′-(2-((3-pyridinyl)methyl)-1-azabicyclo[2.2.2]oct-3-yl)urea]", "values": [{"measurement": "activation at 100 µM", "result": "1 to 12", "unit": "%"}]}, {"compound": "CN(C(=O)Nc1ccccc1)C1C2CCN(CC2)C1Cc1cccnc1", "note": "(centres unmarked) [Compound 26, N-phenyl-N′-methyl-N′-(2-((3-pyridinyl)methyl)-1-azabicyclo[2.2.2]oct-3-yl)urea]", "values": [{"measurement": "activation at 100 µM", "result": "1 to 12", "unit": "%"}]}, {"compound": "CN(C(=O)Nc1ccc(Br)cc1)C1C2CCN(CC2)C1Cc1cccnc1", "note": "(centres unmarked) [Compound 27, N-(4-bromophenyl)-N′-methyl-N′-(2-((3-pyridinyl)methyl)-1-azabicyclo [2.2.2]oct-3-yl)urea]", "values": [{"measurement": "activation at 100 µM", "result": "1 to 12", "unit": "%"}]}, {"compound": "O=C(C=Cc1ccccc1)NC1C2CCN(CC2)C1Cc1cccnc1", "note": "(centres unmarked) [Compound 28, N-(2-((3-pyridinyl)methyl)-1-azabicyclo[2.2.2]oct-3-yl)3-phenylprop-2-enamide]", "values": [{"measurement": "activation at 100 µM", "result": "1 to 12", "unit": "%"}]}, {"compound": "O=C(C=Cc1ccc(Cl)cc1)NC1C2CCN(CC2)C1Cc1cccnc1", "note": "(centres unmarked) [Compound 29, N-(2-((3-pyridinyl)methyl)-1-azabicyclo[2.2.2]oct-3-yl)-3-(4-chlorophenyl)prop-2-enamide]", "values": [{"measurement": "activation at 100 µM", "result": "1 to 12", "unit": "%"}]}, {"compound": "O=C(C=Cc1ccc(Br)cc1)NC1C2CCN(CC2)C1Cc1cccnc1", "note": "(centres unmarked) [Compound 30, N-(2-((3-pyridinyl)methyl)-1-azabicyclo[2.2.2]oct-3-yl)-3-(4-bromophenyl)prop-2-enamide]", "values": [{"measurement": "activation at 100 µM", "result": "1 to 12", "unit": "%"}]}, {"compound": "O=C(C=Cc1cccc(O)c1)NC1C2CCN(CC2)C1Cc1cccnc1", "note": "(centres unmarked) [Compound 31, N-(2-((3-pyridinyl)methyl)-1-azabicyclo[2.2.2]oct-3-yl)-3-(3-hydroxyphenyl)prop-2-enamide]", "values": [{"measurement": "activation at 100 µM", "result": "1 to 12", "unit": "%"}]}, {"compound": "COc1cccc(C=CC(=O)NC2C3CCN(CC3)C2Cc2cccnc2)c1", "note": "(centres unmarked) [Compound 32, N-(2-((3-pyridinyl)methyl)-1-azabicyclo[2.2.2]oct-3-yl)-3-(3-methoxyphenyl)prop-2-enamide]", "values": [{"measurement": "activation at 100 µM", "result": "1 to 12", "unit": "%"}]}, {"compound": "O=C(C=Cc1ccccc1F)NC1C2CCN(CC2)C1Cc1cccnc1", "note": "(centres unmarked) [Compound 33, N-(2-((3-pyridinyl)methyl)-1-azabicyclo[2.2.2]oct-3-yl)-3-(2-fluorophenyl)prop-2-enamide]", "values": [{"measurement": "activation at 100 µM", "result": "1 to 12", "unit": "%"}]}, {"compound": "O=C(C=Cc1ccccc1O)NC1C2CCN(CC2)C1Cc1cccnc1", "note": "(centres unmarked) [Compound 34, N-(2-((3-pyridinyl)methyl)-1-azabicyclo[2.2.2]oct-3-yl)-3-(2-hydroxyphenyl)prop-2-enamide]", "values": [{"measurement": "activation at 100 µM", "result": "1 to 12", "unit": "%"}]}]}
